Results from the NIST ThermoML archive (doi:10.1021/acs.jced.7b00035).
Where “and” joins values, the source holds several entries; their conditions need not be identical. Equal entries are not always repeated.

Assays:
[1] = xn = mol fraction of the nth substance listed; conditions: 100 kPa, Liquid, Vibrating tube method
[2] = excess molar enthalpy (molar enthalpy of mixing); xn = mol fraction of the nth substance listed; conditions: 100 kPa, Liquid, Flow calorimetry

CCCC(C)=O [pentan-2-one] + O
Conditions | excess molar enthalpy, [2] | mass density, [1]
288.15 K, x1 = 0.000842 | -0.0106 kJ/mol and -0.0107 kJ/mol | 998.562 kg/m3 and 998.56 kg/m3
288.15 K, x1 = 0.001683 | -0.0212 kJ/mol | 998.027 kg/m3 and 998.026 kg/m3
288.15 K, x1 = 0.002522 | -0.0315 kJ/mol and -0.0314 kJ/mol | 997.512 kg/m3 and 997.513 kg/m3
288.15 K, x1 = 0.00336 | -0.0413 kJ/mol | 997.021 kg/m3
288.15 K, x1 = 0.003361 | -0.0415 kJ/mol | 997.002 kg/m3
288.15 K, x1 = 0.004197 | -0.0511 kJ/mol | 996.522 kg/m3
288.15 K, x1 = 0.004198 | -0.0515 kJ/mol | 996.499 kg/m3
288.15 K, x1 = 0.005032 | -0.0612 kJ/mol | 996.016 kg/m3
288.15 K, x1 = 0.005035 | -0.0613 kJ/mol | 996.015 kg/m3
298.15 K, x1 = 0.000841 | -0.00867 kJ/mol | 996.472 kg/m3
298.15 K, x1 = 0.000842 | -0.00867 kJ/mol | 996.472 kg/m3
298.15 K, x1 = 0.001681 | -0.0172 kJ/mol | 995.903 kg/m3
298.15 K, x1 = 0.001682 | -0.0172 kJ/mol | 995.902 kg/m3
298.15 K, x1 = 0.00252 | -0.0257 kJ/mol | 995.346 kg/m3
298.15 K, x1 = 0.002521 | -0.0258 kJ/mol | 995.334 kg/m3
298.15 K, x1 = 0.003357 | -0.0338 kJ/mol | 994.797 kg/m3
298.15 K, x1 = 0.003358 | -0.0335 kJ/mol | 994.811 kg/m3
298.15 K, x1 = 0.004193 | -0.0418 kJ/mol and -0.0416 kJ/mol | 994.25 kg/m3 and 994.26 kg/m3
298.15 K, x1 = 0.005028 | -0.0496 kJ/mol | 993.716 kg/m3
298.15 K, x1 = 0.005029 | -0.0497 kJ/mol | 993.707 kg/m3
308.15 K, x1 = 0.000841 | -0.00681 kJ/mol | –
308.15 K, x1 = 0.000842 | -0.00685 kJ/mol | 993.42 kg/m3
308.15 K, x1 = 0.001681 | -0.0135 kJ/mol | 992.814 kg/m3
308.15 K, x1 = 0.001683 | -0.0135 kJ/mol | 992.818 kg/m3
308.15 K, x1 = 0.00252 | -0.0199 kJ/mol | 992.226 kg/m3
308.15 K, x1 = 0.002522 | -0.0198 kJ/mol | 992.228 kg/m3
308.15 K, x1 = 0.003358 | -0.0262 kJ/mol | 991.617 kg/m3
308.15 K, x1 = 0.00336 | -0.0261 kJ/mol | 991.643 kg/m3
308.15 K, x1 = 0.004194 | -0.0324 kJ/mol | 991.052 kg/m3
308.15 K, x1 = 0.004197 | -0.0324 kJ/mol | 991.045 kg/m3
308.15 K, x1 = 0.005031 | -0.0384 kJ/mol | 990.475 kg/m3
308.15 K, x1 = 0.005034 | -0.0383 kJ/mol | 990.474 kg/m3
318.15 K, x1 = 0.00084 | -0.00492 kJ/mol | 989.57 kg/m3
318.15 K, x1 = 0.001679 | -0.00971 kJ/mol | 988.929 kg/m3
318.15 K, x1 = 0.002517 | -0.0143 kJ/mol | 988.307 kg/m3
318.15 K, x1 = 0.003354 | -0.0188 kJ/mol | 987.666 kg/m3
318.15 K, x1 = 0.004189 | -0.0231 kJ/mol | 987.058 kg/m3
318.15 K, x1 = 0.005024 | -0.0272 kJ/mol | 986.447 kg/m3

CCC(=O)CC [pentan-3-one] + O
Conditions | excess molar enthalpy, [2] | mass density, [1] [kg/m3]
288.15 K, x1 = 0.000848 | -0.0109 kJ/mol | 998.595
288.15 K, x1 = 0.000849 | -0.011 kJ/mol | 998.589
288.15 K, x1 = 0.001695 | -0.0215 kJ/mol | 998.107
288.15 K, x1 = 0.001696 | -0.0218 kJ/mol | 998.104
288.15 K, x1 = 0.00254 | -0.0323 kJ/mol | 997.609
288.15 K, x1 = 0.002542 | -0.0322 kJ/mol | 997.616
288.15 K, x1 = 0.003385 | -0.0426 kJ/mol | 997.144
288.15 K, x1 = 0.003386 | -0.0427 kJ/mol | 997.139
288.15 K, x1 = 0.004227 | -0.0529 kJ/mol | 996.667
288.15 K, x1 = 0.004229 | -0.0527 kJ/mol | 996.682
288.15 K, x1 = 0.005069 | -0.0627 kJ/mol | 996.228
288.15 K, x1 = 0.005071 | -0.0629 kJ/mol | 996.221
298.15 K, x1 = 0.000847 | -0.00897 kJ/mol and -0.00895 kJ/mol | 996.504
298.15 K, x1 = 0.001693 | -0.018 kJ/mol | 995.96
298.15 K, x1 = 0.001694 | -0.0178 kJ/mol | 995.958
298.15 K, x1 = 0.002537 | -0.0262 kJ/mol | 995.458
298.15 K, x1 = 0.002539 | -0.0263 kJ/mol | 995.442
298.15 K, x1 = 0.00338 | -0.0344 kJ/mol | 994.944
298.15 K, x1 = 0.003383 | -0.0347 kJ/mol | 994.931
298.15 K, x1 = 0.004222 | -0.0431 kJ/mol | 994.42
298.15 K, x1 = 0.004225 | -0.0431 kJ/mol | 994.423
298.15 K, x1 = 0.005064 | -0.0513 kJ/mol | 993.924
298.15 K, x1 = 0.005066 | -0.0516 kJ/mol | 993.902
308.15 K, x1 = 0.000848 | -0.00697 kJ/mol | 993.46
308.15 K, x1 = 0.000849 | -0.00709 kJ/mol | 993.449
308.15 K, x1 = 0.001695 | -0.0139 kJ/mol | 992.887
308.15 K, x1 = 0.001696 | -0.0139 kJ/mol | 992.873
308.15 K, x1 = 0.00254 | -0.0206 kJ/mol | 992.322
308.15 K, x1 = 0.002543 | -0.0208 kJ/mol | 992.311
308.15 K, x1 = 0.003384 | -0.027 kJ/mol | 991.77
308.15 K, x1 = 0.003387 | -0.0268 kJ/mol | 991.774
308.15 K, x1 = 0.004226 | -0.0333 kJ/mol | 991.241
308.15 K, x1 = 0.004231 | -0.0334 kJ/mol | 991.216
308.15 K, x1 = 0.005069 | -0.0399 kJ/mol | 990.666
308.15 K, x1 = 0.005074 | -0.0401 kJ/mol | 990.66
318.15 K, x1 = 0.000849 | -0.00506 kJ/mol | 989.61
318.15 K, x1 = 0.00085 | -0.00512 kJ/mol | 989.603
318.15 K, x1 = 0.001697 | -0.0101 kJ/mol | 989.005
318.15 K, x1 = 0.001698 | -0.0101 kJ/mol | 988.992
318.15 K, x1 = 0.002543 | -0.0149 kJ/mol | 988.399
318.15 K, x1 = 0.002544 | -0.0149 kJ/mol | 988.396
318.15 K, x1 = 0.003388 | -0.0193 kJ/mol | 987.821
318.15 K, x1 = 0.00339 | -0.0196 kJ/mol | 987.82
318.15 K, x1 = 0.004231 | -0.0241 kJ/mol | 987.229
318.15 K, x1 = 0.004233 | -0.024 kJ/mol | 987.234
318.15 K, x1 = 0.005073 | -0.0284 kJ/mol | 986.636
318.15 K, x1 = 0.005076 | -0.0285 kJ/mol | 986.636
